Legend:
Format in all cases: physicochemical
[1] = Infrared fluorescence image of thick and thin layers of ICG with and without Ag colloid; settings: thick (1 cm) layers, 0.250 mg/mL ICG in HAS with or without 4.684 mg/mL Ag colloid, 805 nm
Description: FIG. 7 is an infrared fluorescence image comparing the fluorescence enhancement effect of silver colloid in 0.05 mg/mL ICG solutions; samples in the left-hand side contain no colloid, while those in the right-hand side contain colloid; samples at the top are in 1-cm thick tubes, while those at the bottom are 100 microns thick;
FIG. 8 is an infrared fluorescence image of the samples of FIG. 7 showing reflection of the 805-nm wavelength light used to stimulate fluorescence; no barrier filter was placed in front of the CCD camera in this case;
The disparity between fluorescence enhancement reported in the experiments made using glass surfaces on which the dye/colloid conjugates were bound with amino groups (30-fold) and those observed in the in vivo angiograms (2- to 3-fold) apparently was due to the fact that the colloid fluorescence-enhancement effect is manifest in very thin layers of the dye/suspension and suppressed in thick ones. In this figure, the thick samples are at the top, and the thin ones at the bottom; 0.250 mg/mL ICG in HAS is on the left, and 0.250 mg/mL ICG in HAS with 4.684 mg/mL Ag colloid on the right. The array of samples was uniformly illuminated with 805-nm wavelength light, and the ICG fluorescence image was captured. […]

[2] = Near-infrared fluorescence micrographs (40×) of ICG-loaded vs ICG-stained erythrocytes: cell brightness; settings: FIG. 1C, plasma exposed 20 min to stained erythrocytes
Description: FIGS. 1A-1D are near-infrared fluorescence micrographs at 40× magnification of erythrocytes, comparing the brightness of cells “stained” with ICG (A—stained in 1 mM ICG solution for 30 min. and B—stained in 2 mM ICG solution for 60 min. to cells into which ICG has been loaded through pores in their membranes; C—stained plasma resulting from exposure for 20 min. to the stained erythrocytes from A; D—dialysed in 1 mM ICG solution for 30 min.);
(1) Although many fluorescent dyes, such as ICG dye, do bind to the erythrocyte outer cell membrane, binding is weak and non-covalent, and regardless of the dye concentration and conjugation time, the maximum fluorescence brightness that can be achieved is considerably less than optimum (see FIG. 1). […] (2) Exposure to fluorescence excitation energy for diagnostic purposes must not exceed the safe maximum permissible exposure level for the sensory retina. Since ICG dye is a fairly weak emitter of fluorescence, care must be taken to ensure that the amount of ICG present post-loading is optimal, resulting in maximum fluorescence intensity possible at a given safe excitation energy level. […] Moreover, since ICG is subject to concentration fluorescence quenching—even when inside erythrocytes—the amount of loaded dye must be controlled: too much or too little will not produce the maximum fluorescence. […]

[3] = Optimum ICG concentration for fluorescence (concentration quenching)
From the text: (1) Although many fluorescent dyes, such as ICG dye, do bind to the erythrocyte outer cell membrane, binding is weak and non-covalent, and regardless of the dye concentration and conjugation time, the maximum fluorescence brightness that can be achieved is considerably less than optimum (see FIG. 1). […] (2) Exposure to fluorescence excitation energy for diagnostic purposes must not exceed the safe maximum permissible exposure level for the sensory retina. Since ICG dye is a fairly weak emitter of fluorescence, care must be taken to ensure that the amount of ICG present post-loading is optimal, resulting in maximum fluorescence intensity possible at a given safe excitation energy level. […] Moreover, since ICG is subject to concentration fluorescence quenching—even when inside erythrocytes—the amount of loaded dye must be controlled: too much or too little will not produce the maximum fluorescence. […] Achieving optimal dye concentration is accomplished by controlling the amount of dye in the solution during dialysis once the pores in the cell membranes open; experimentation has determined the optimum amount to be approximately 1.0 μmol/mL dialysed cell-solution (see FIG. 2). […] This also has the advantage of preventing plasma dye-staining and the associated reduction of contrast between cell fluorescence and background brightness once the cells are re-injected. […]

## CC1(C)C(/C=C/C=C/C=C/C=C2\N(CCCCS(=O)(=O)O)c3ccc4ccccc4c3C2(C)C)=[N+](CCCCS(=O)(=O)[O-])c2ccc3ccccc3c21 [ICG, indocyanine green]
[1]
  fluorescence brightness, thick samples: significantly brighter
[2]
  affinity of ICG dye molecules: plasma proteins vs erythrocyte outer membrane: greater for plasma proteins than for the erythrocyte outer membrane
[3]; ICG inserted into S-IEs
  optimum concentration of dye molecules in the loaded cells; above that level fluorescence quenching occurs: about 0.03 mg/mL
[3]; for maximum fluorescence of loaded erythrocytes
  optimum amount of dye in the solution during dialysis: approximately 1.0 μmol/mL dialysed cell-solution

— US10041042B2, “Methods for production and use of substance-loaded erythrocytes (S-IEs) for observation and treatment of microvascular hemodynamics” (Novadaq Technologies ULC, priority 2008, dated 2018)
